Reference: patent US20090181948A1, “DIAMINE DERIVATIVE” (KYOWA HAKKO KOGYO CO., LTD., priority 2005, published 2009)
Where a name gives a salt, the structure may show the parent alone.

Legend:
[1] = molecular target: T1, histamine H3 receptor (Rattus norvegicus, UniProt Q9QYN8); assay: Histamine H3 receptor binding assay ([3H]-Nα-methylhistamine binding to rat striatum homogenate); conditions: 1 μmol/L test compound; [3H]-Nα-methylhistamine 1 nmol/L; striata of Sprague-Dawley male rats, 25° C., 1 hour; read-out: Inhibition ratio of [3H]-Nα-methylhistamine binding
T1 construct: from tissue; host or cells: rat striatum (Sprague-Dawley, male, 6 weeks), membrane homogenate
Summary of the method: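 Rat striatum membranes (20 μg protein) incubated with [3H]-Nα-methylhistamine 1 nmol/L in 50 mmol/L Tris/HCl pH 7.4, 5 mmol/L EDTA, 1 hour at 25° C; bound ligand by filtration and scintillation counting. Nonspecific binding defined with 10 μmol/L thioperamide; % inhibition reported at 1 μmol/L compound.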

[2] = molecular target: T1, histamine H3 receptor; assay: Inhibitory effect on histamine release suppressive action of histamine H3 receptor agonist (Nα-methylhistamine) in rat forebrain synaptosomes; type: biochemical; conditions: 1 μmol/L test compound and 1 μmol/L Nα-methylhistamine, potassium 30 mmol/L stimulation, read-out: Inhibition ratio of the [3H]-histamine release suppressive action of Nα-methylhistamine
Procedure: To the forebrains of Sprague-Dawley male rats (6 to 8 weeks of age), a 30-fold volume of a 0.32 mol/L aqueous sucrose solution was added and the forebrains were homogenized. The resulting homogenate was centrifuged (1,000×g, 4° C., 10 min), and to the obtained supernatant, an equivalent volume of Krebs-Ringer solution [120 mmol/L sodium chloride, 0.8 mmol/L potassium chloride, 2.6 mmol/L calcium chloride, 0.67 mmol/L magnesium sulfate, 1.2 mmol/L potassium dihydrogen phosphate, 27.5 mmol/L sodium bicarbonate, 10 mmol/L glucose (pH 7.3)] was added, and the resulting mixture was centrifuged (10,000×g, 4° C., 15 min). To the obtained precipitate, a 15-fold volume of Krebs-Ringer solution was added to suspend the precipitate. Then, the concentration of protein in the resulting tissue homogenate (synaptosomes) was measured and used for a test.
To the synaptosomes (300 μg in terms of protein amount) prepared by the above-described method, a [^3H]-histidine solution [final concentration: […] (740 kBq)/mL]: 6 μl of a 37 MBq/mL (specific activity: […]) solution] was added, and the total volume was adjusted to 300 μL with Krebs-Ringer solution. Then, the resulting mixture was incubated at 37° C. for 30 minutes and centrifuged (10,000×g, 25° C., 3 min). To the resulting precipitate (synaptosomes), 300 μL of Krebs-Ringer solution was added, and the mixture was incubated at 37° C. for 5 minutes and centrifuged (10,000×g, 25° C., 3 min). This procedure was repeated 5 times, whereby washing of synaptosomes was carried out. The resulting synaptosomes were suspended in 100 μL of Krebs-Ringer solution, and the resulting suspension was used for the following procedure.
A test compound and N^α-methylhistamine were separately dissolved in Krebs-Ringer solution to give a concentration of 20 μmol/L (the resulting mixtures were referred to as a test compound solution and a N^α-methylhistamine solution, respectively). To 100 μL of the above-described suspended synaptosomes (300 μg in terms of protein amount), 140 μL of Krebs-Ringer solution was added. Then, 30 μL of the test compound solution and 30 μL of the N^α-methylhistamine solution were added thereto, and the resulting mixture was incubated at 37° C. for 2 minutes. Then, an equivalent volume of a stimulating solution [64 mmol/L sodium chloride, 56.8 mmol/L potassium chloride, 2.6 mmol/L calcium chloride, 0.67 mmol/L magnesium sulfate, 1.2 mmol/L potassium dihydrogen phosphate, 27.5 mmol/L sodium bicarbonate, 10 mmol/L glucose (pH 7.3)] (final potassium concentration: 30 mmol/L) was added, and the resulting mixture was incubated at 37° C. for 2 minutes to release [^3H]-histamine. The reaction mixture was centrifuged (10,000×g, 25° C., 3 min), and the obtained supernatant was passed through Amberlite CG-50 column (250 μL), and the non-adsorbed fractions were discarded. Then, 2 mL of 50 mmol/L [[…]]/hydrochloric acid (HCl) (pH 7.5) (Tris) was passed through the column 3 times, and 2 mL of distilled water, and 1.5 mL of a 0.2 mol/L aqueous sodium hydroxide solution were passed through the column in this order, and the eluted fractions were discarded. Then, 2 mL of a 0.2 mol/L aqueous sodium hydroxide solution was passed through the column, and the eluted fraction was recovered in a scintillation vial. Then, 8 mL of Ultimagold (Perkin Elmer) was added to the recovered eluted solution, and the radioactivity ([^3H]-histamine) was measured using a liquid scintillation counter. The inhibitory action of the test compound on the histamine release suppressive action of N^α-methylhistamine was evaluated by obtaining the inhibition ratio to the histamine release suppressive action in the presence of 1 μmol/L No-methylhistamine and 1 μmol/L of the test compound. The inhibition ratio of the [^3H]-histamine release suppressive action was calculated using the following Equation (2). […]

T1 sequence (Q9QYN8 whole entry): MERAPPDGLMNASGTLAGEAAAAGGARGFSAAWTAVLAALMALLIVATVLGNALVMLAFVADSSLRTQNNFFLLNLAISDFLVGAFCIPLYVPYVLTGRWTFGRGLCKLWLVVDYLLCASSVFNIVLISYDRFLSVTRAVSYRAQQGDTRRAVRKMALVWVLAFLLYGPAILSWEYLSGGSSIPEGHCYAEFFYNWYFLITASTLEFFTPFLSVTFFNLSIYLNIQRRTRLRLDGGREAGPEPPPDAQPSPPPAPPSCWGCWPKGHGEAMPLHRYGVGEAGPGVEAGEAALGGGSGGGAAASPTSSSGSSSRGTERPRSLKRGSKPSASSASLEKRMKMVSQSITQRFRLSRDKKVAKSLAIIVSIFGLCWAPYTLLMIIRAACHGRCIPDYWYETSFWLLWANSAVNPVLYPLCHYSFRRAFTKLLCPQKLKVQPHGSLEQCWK

**Q.** Which inhibition at 1 µM [1] does the source give for `C[C@@H]1CCC[C@H](C)N1CCN1CCN(CCCN2CCCCC2)C1=C(C#N)C#N` [Compound 51, {1-[2-(Cis-2,6-dimethylpiperidino)ethyl]-3-(3-piperidinopropyl)imidazolidin-2-ylidene}malononitrile] here?
**A.** ≥ 80%

**Q.** And the inhibition at 1 µM [2]?
**A.** ≥ 70%

**Q.** Which inhibition at 1 µM [1] does the source give for `CC1CCCCN1CCCN1CCN(CCCN2CCCC2C)C1=C(C#N)C#N` (stereo not shown) [Compound 111, {1-[3-(2-Methylpiperidino)propyl]-3-[3-(2-methylpyrrolidin-1-yl)propyl]imidazolidin-2-ylidene}malononitrile] here?
**A.** ≥ 80%

**Q.** What about the inhibition at 1 µM [2] of the same molecule?
**A.** ≥ 70%

**Q.** Which results are given for `C[C@H]1CCCN1CCCN1CCN(CCCN2CCC[C@@H]2C)C1=C(C#N)S(=O)(=O)c1ccccc1` [Compound 247, {1,3-Bis[3-((S)-2-methylpyrrolidin-1-yl)propyl]imidazolidin-2-ylidene}benzenesulfonylacetonitrile monohydrochloride]?
**A.** inhibition at 1 µM [1]: ≥ 80%; inhibition at 1 µM [2]: ≥ 70%

**Q.** Which results are given for `N#CC(C#N)=C1N(CCCN2CCCCC2)CCN1C1CCN(CCF)CC1` [Compound 215, {1-[1-(2-Fluoroethyl)piperidin-4-yl]-3-(3-piperidinopropyl)imidazolidin-2-ylidene}malononitrile]?
**A.** inhibition at 1 µM [1]: ≥ 80%; inhibition at 1 µM [2]: ≥ 70%

**Q.** With `N#CC(C#N)=C1N(CCCN2CCCCC2)CCN1CCN1CCCCC1` [Compound 10, [1-(2-Piperidinoethyl)-3-(3-piperidinopropyl)imidazolidin-2-ylidene]malononitrile] as the molecule, how does the inhibition at 1 µM [1] read?
**A.** ≥ 80%

**Q.** And the inhibition at 1 µM [2]?
**A.** ≥ 70%

**Q.** With `N#CC(C#N)=C1N(CCCN2CCCCC2)CCN1CCN1CCCCCC1` [Compound 47, {1-[2-(Azepan-1-yl)ethyl]-3-(3-piperidinopropyl)imidazolidin-2-ylidene}malononitrile] as the molecule, how does the inhibition at 1 µM [1] read?
**A.** ≥ 80%

**Q.** What about the inhibition at 1 µM [2] of the same molecule?
**A.** ≥ 70%

**Q.** With `CC1CCCN1CCCN1CCN(CCN2CCCC2)C1=C(C#N)C#N` (stereo not shown) [Compound 61, {1-[3-(2-Methylpyrrolidin-1-yl)propyl]-3-[2-(pyrrolidin-1-yl)ethyl]imidazolidin-2-ylidene}malononitrile] as the molecule, how does the inhibition at 1 µM [1] read?
**A.** ≥ 80%

**Q.** What about the melting point of the same molecule?
**A.** 95 to 96 °C

**Q.** What does the source list for `CC(C)N1CCC(NC(=C(C#N)C#N)N2CCC(N3CCCCC3)CC2)CC1` [Compound 175, [(1-Isopropylpiperidin-4-ylamino)(4-piperidinopiperidino)methylene]malononitrile]?
**A.** inhibition at 1 µM [1]: ≥ 80%; inhibition at 1 µM [2]: ≥ 70%

**Q.** Which results are given for `N#CC(C#N)=C1N(CCCN2CCCCC2)CCN1CCN1CCCC1` [Compound 59, {1-(3-Piperidinopropyl)-3-[2-(pyrrolidin-1-yl)ethyl]imidazolidin-2-ylidene}malononitrile]?
**A.** inhibition at 1 µM [1]: ≥ 80%; melting point: 63 to 64 °C

**Q.** What does the source list for `N#CC(C#N)=C(NCCCN1CCCCC1)N1CCC(N2CCCC2)CC1` [Compound 158, {(3-Piperidinopropylamino)[4-(pyrrolidin-1-yl)piperidino]methylene}malononitrile]?
**A.** inhibition at 1 µM [1]: ≥ 80%; melting point: 114 to 116 °C

**Q.** With `CC(C)N1CCC(N2CCN(CCCN3CCCCC3)C2=C(C#N)C#N)CC1` [Compound 130, [1-(1-Isopropylpiperidin-4-yl)-3-(3-piperidinopropyl)imidazolidin-2-ylidene]malononitrile] as the molecule, how does the inhibition at 1 µM [1] read?
**A.** ≥ 80%

**Q.** And the inhibition at 1 µM [2]?
**A.** ≥ 70%

**Q.** For `N#CC(C#N)=C1N(CCCCN2CCCCC2)CCN1CCN1CCCCC1` [Compound 7, [1-(4-Piperidinobutyl)-3-(2-piperidinoethyl)imidazolidin-2-ylidene]malononitrile], which inhibition at 1 µM [1] is on record?
**A.** ≥ 80%

**Q.** What about the inhibition at 1 µM [2] of the same molecule?
**A.** ≥ 70%

**Q.** With `N#CC(C#N)=C1N(CCCN2CCCCC2)CCCN1CCCN1CCCCC1` [Compound 122, [1,3-Bis(3-piperidinopropyl)hexahydropyrimidin-2-ylidene]malononitrile] as the molecule, how does the inhibition at 1 µM [1] read?
**A.** ≥ 80%

**Q.** What about the inhibition at 1 µM [2] of the same molecule?
**A.** ≥ 70%

**Q.** With `N#CC(C#N)=C1N(CCCN2CCCCC2)CCN1C1CCN(Cc2ccccc2)CC1` [Compound 126, [1-(1-Benzylpiperidin-4-yl)-3-(3-piperidinopropyl)imidazolidin-2-ylidene]malononitrile] as the molecule, how does the inhibition at 1 µM [1] read?
**A.** ≥ 80%

**Q.** What about the inhibition at 1 µM [2] of the same molecule?
**A.** ≥ 70%

**Q.** Which inhibition at 1 µM [1] does the source give for `C[C@@H]1CCCN1CCCN1CCN(CCN2CCCCC2)C1=C(C#N)C#N` [Compound 194, {1-[3-((R)-2-methylpyrrolidin-1-yl)propyl]-3-(2-piperidinoethyl)imidazolidin-2-ylidene}malononitrile] here?
**A.** ≥ 80%

**Q.** What about the melting point of the same molecule?
**A.** 74 to 76 °C

**Q.** For `N#CC(C#N)=C1N(CCCN2CCCC2)CCN1CCN1CCCC1` [Compound 60, {1-[2-(Pyrrolidin-1-yl)ethyl]-3-[3-(pyrrolidin-1-yl)propyl]imidazolidin-2-ylidene}malononitrile], which inhibition at 1 µM [1] is on record?
**A.** ≥ 80%

**Q.** And the melting point?
**A.** 70 to 71 °C

**Q.** Which results are given for `C[C@@H]1CCCN1CCCN1CCN(CCN2CCC[C@H]2C)C1=C(C#N)C#N` [Compound 55, {1-[2-((R)-2-methylpyrrolidin-1-yl)ethyl]-3-[3-((R)-2-methylpyrrolidin-1-yl)propyl]imidazolidin-2-ylidene}malononitrile]?
**A.** inhibition at 1 µM [1]: ≥ 80%; melting point: 74 to 75 °C

**Q.** With `N#CC(C#N)=C1N(CCCN2CCC[C@@H]2CO)CCN1CCCN1CCC[C@@H]1CO` [Compound 118, {1,3-Bis[3-((R)-2-hydroxymethylpyrrolidin-1-yl)propyl]imidazolidin-2-ylidene}malononitrile] as the molecule, how does the inhibition at 1 µM [1] read?
**A.** ≥ 80%

**Q.** What about the melting point of the same molecule?
**A.** 79 to 80 °C

**Q.** Which results are given for `CCN(CCCN1CCCCC1)C(=C(C#N)C#N)N1CCC(N2CCCCC2)CC1` [Compound 162, {[N-ethyl-N-(3-piperidinopropyl)amino](4-piperidinopiperidino)methylene}malononitrile]?
**A.** inhibition at 1 µM [1]: ≥ 80%; melting point: 94 to 96 °C

**Q.** Which inhibition at 1 µM [1] does the source give for `C[C@@H]1CCCN1CCCN1CCN(CCN2CCC[C@@H]2C)C1=C(C#N)C#N` [Compound 197, {3-[2-((S)-2-methylpyrrolidin-1-yl)ethyl]-1-[3-((R)-2-methylpyrrolidin-1-yl)propyl]imidazolidin-2-ylidene}malononitrile] here?
**A.** ≥ 80%

**Q.** And the melting point?
**A.** 93 to 94 °C

**Q.** Which inhibition at 1 µM [1] does the source give for `CN1CCCC1CCN1CCN(CCC2CCCN2C)C1=C(C#N)C#N` (stereo not shown) [Compound 4, {1,3-Bis[2-(1-methylpyrrolidin-2-yl)ethyl]imidazolidin-2-ylidene}malononitrile] here?
**A.** ≥ 80%

**Q.** And the melting point?
**A.** 121 to 123 °C

**Q.** With `CC1CCCCN1CCN1CCN(CCCN2CCC[C@@H]2C)C1=C(C#N)C#N` (stereo partly drawn) [Compound 198, {3-[2-(2-Methylpiperidino)ethyl]-1-[3-((S)-2-methylpyrrolidin-1-yl)propyl]imidazolidin-2-ylidene}malononitrile] as the molecule, how does the inhibition at 1 µM [1] read?
**A.** ≥ 80%

**Q.** And the melting point?
**A.** 88 to 89 °C

**Q.** With `C#CC(C)(C)N1CCC(N2CCN(CCCN3CCCCC3)C2=C(C#N)C#N)CC1` [Compound 228, {1-[1-(1,1-Dimethyl-2-propynyl)piperidin-4-yl]-3-(3-piperidinopropyl)imidazolidin-2-ylidene}malononitrile] as the molecule, how does the inhibition at 1 µM [1] read?
**A.** ≥ 80%

**Q.** What about the melting point of the same molecule?
**A.** 112 to 115 °C
